Patent US10836763B2, “5 to 7 membered heterocyclic amides as JAK inhibitors” (priority 2018, dated 2020)
Like-named read-outs stand apart in the source and are kept apart here.

Assays:
JAK1 = JAK1 (Homo sapiens (Human), UniProt P23458); test: Biochemical JAK kinase assay (LanthaScreen), JAK1
Procedure: (§1) Assay 1: Biochemical JAK Kinase Assays
(§2) A panel of four LanthaScreen JAK biochemical assays (JAK1, 2, 3 and Tyk2) were carried in a common kinase reaction buffer (50 mM HEPES, pH 7.5, 0.01% Brij-35, 10 mM MgCl2, and 1 mM EGTA). Recombinant GST-tagged JAK enzymes and a GFP-tagged STAT1 peptide substrate were obtained from Life Technologies.
(§3) Serially diluted compounds were pre-incubated with each of the four JAK enzymes and the substrate in white 384-well microplates (Corning) at ambient temperature for 1 h. ATP was subsequently added to initiate the kinase reactions in 10 μL total volume, with 1% DMSO. […] Kinase reactions were allowed to proceed for 1 hour at ambient temperature before a 10 μL preparation of EDTA (10 mM final concentration) and Tb-anti-pSTAT1 (pTyr701) antibody (Life Technologies, 2 nM final concentration) in TR-FRET dilution buffer (Life Technologies) was added. The plates were allowed to incubate at ambient temperature for 1 h before being read on the EnVision reader (Perkin Elmer). Emission ratio signals (520 nm/495 nm) were recorded and utilized to calculate the percent inhibition values based on DMSO and background controls.
(§4) For dose-response analysis, percent inhibition data were plotted vs. compound concentrations, and IC50 values were determined from a 4-parameter robust fit model with the Prism software (GraphPad Software). Results were expressed as pIC50 (negative logarithm of IC50) and subsequently converted to pKi (negative logarithm of dissociation constant, Ki) using the Cheng-Prusoff equation.

Tyk2 = Tyk2 (Homo sapiens (Human), UniProt P29597); test: Biochemical JAK kinase assay (LanthaScreen), Tyk2
Tyk2, sequence (P29597 whole entry): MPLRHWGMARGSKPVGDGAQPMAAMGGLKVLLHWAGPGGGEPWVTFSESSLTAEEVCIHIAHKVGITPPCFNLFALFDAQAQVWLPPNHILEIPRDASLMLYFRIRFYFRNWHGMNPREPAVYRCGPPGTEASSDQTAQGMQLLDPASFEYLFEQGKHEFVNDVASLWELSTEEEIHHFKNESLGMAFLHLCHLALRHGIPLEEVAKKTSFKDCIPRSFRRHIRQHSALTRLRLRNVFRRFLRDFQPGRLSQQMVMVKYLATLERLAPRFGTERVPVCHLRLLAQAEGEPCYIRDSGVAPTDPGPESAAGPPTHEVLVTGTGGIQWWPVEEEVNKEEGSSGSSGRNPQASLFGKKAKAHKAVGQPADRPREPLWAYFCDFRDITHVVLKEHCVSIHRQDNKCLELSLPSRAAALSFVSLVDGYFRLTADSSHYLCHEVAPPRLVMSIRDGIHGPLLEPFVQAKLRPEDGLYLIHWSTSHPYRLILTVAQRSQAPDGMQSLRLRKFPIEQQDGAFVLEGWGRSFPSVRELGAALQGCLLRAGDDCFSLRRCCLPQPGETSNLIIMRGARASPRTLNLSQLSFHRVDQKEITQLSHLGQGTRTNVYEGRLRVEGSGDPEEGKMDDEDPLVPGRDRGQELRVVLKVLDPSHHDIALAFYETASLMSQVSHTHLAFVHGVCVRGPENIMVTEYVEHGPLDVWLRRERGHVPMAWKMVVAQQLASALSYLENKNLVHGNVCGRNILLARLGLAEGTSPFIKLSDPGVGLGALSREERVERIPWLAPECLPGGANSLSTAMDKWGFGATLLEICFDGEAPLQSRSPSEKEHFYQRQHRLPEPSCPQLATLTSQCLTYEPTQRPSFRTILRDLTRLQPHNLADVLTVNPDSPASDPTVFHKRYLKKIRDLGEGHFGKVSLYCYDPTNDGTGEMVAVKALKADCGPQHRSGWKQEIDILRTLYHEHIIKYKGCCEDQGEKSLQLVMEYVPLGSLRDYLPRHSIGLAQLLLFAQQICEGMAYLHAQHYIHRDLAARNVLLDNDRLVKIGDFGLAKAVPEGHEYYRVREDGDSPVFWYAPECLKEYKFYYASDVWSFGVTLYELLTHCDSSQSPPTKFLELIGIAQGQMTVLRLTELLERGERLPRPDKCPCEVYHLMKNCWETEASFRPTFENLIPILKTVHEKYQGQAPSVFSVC
Procedure: as §1, §2, §3, §4

[1] = system: IL-2 stimulated STAT5 phosphorylation in Tall-1 human T cell line; test: Inhibition of IL-2 stimulated pSTAT5 in Tall-1 T cells; type: cell-based; conditions: TALL-1, 0.5 h, read-out: Tall-1 pIC50 (converted)
Procedure: Assay 2: Inhibition of IL-2 Stimulated pSTAT5 in Tall-1 T Cells
The potency of test compounds for inhibition of interleukin-2 (IL-2) stimulated STAT5 phosphorylation was measured in the Tall-1 human T cell line (DSMZ) using AlphaLisa.
Phosphorylated STAT5 was measured via the AlphaLISA SureFire Ultra pSTAT5 (Tyr694/699) kit (PerkinElmer).
Compounds were serially diluted in DMSO and dispensed acoustically to empty wells. Assay media (phenol red-free DMEM (Life Technologies) supplemented with 10% FBS (ATCC)) was dispensed (4 μL/well) and plates shaken at 900 rpm for 10 mins. Cells were seeded at 45,000 cells/well in assay media (4 μL/well), and incubated at 37° C., 5% CO2 for 1 hour, followed by the addition of IL-2 (R&D Systems; final concentration 300 ng/mL) in pre-warmed assay media (4 μL) for 30 minutes. […] The lysate was shaken at 900 rpm for 10 minutes at room temperature (RT). Phosphorylated STAT5 was measured via the pSTAT5 AlphaLisa kit (PerkinElmer). Freshly prepared acceptor bead mixture was dispensed onto lysate (5 μL) under green filtered <100 lux light. Plates were shaken at 900 rpm for 2 mins, briefly spun down, and incubated for 2 hrs at RT in the dark. Donor beads were dispensed (5 μL) under green filtered <100 lux light. Plates were shaken at 900 rpm for 2 minutes, briefly spun down, and incubated overnight at RT in the dark. Luminescence was measured with excitation at 689 nm and emission at 570 nm using an EnVision plate reader (PerkinElmer) under green filtered <100 lux light.
To determine the inhibitory potency of test compounds in response to IL-2, the average emission intensity of beads bound to pSTAT5 was measured in a human T cell line. IC50 values were determined from analysis of the inhibition curves of signal intensity versus compound concentration. Data are expressed as pIC50 (negative decadic logarithm IC50) values (mean±standard deviation).

[2] = system: TSLP-evoked TARC release in human peripheral blood mononuclear cells; test: Inhibition of TSLP-evoked TARC release in human peripheral blood mononuclear cells; type: cell-based; conditions: read-out: pIC50 ± st. dev., inhibition of TSLP-evoked TARC release (converted)
Source text: Assay 4: Inhibition of TSLP-Evoked TARC Release in Human Peripheral Blood Mononuclear Cells
Thymic stromal lymphopoietin (TSLP) and thymus and activation-regulated chemokine (TARC) are overexpressed in asthmatic airways, and correlate with disease severity. In the lungs, TSLP may be released by bronchial epithelial cells in response to allergens and viral infections. TSLP signals through an IL-7Rα/TSLPR heterodimer found in a broad range of tissues and cell types, including epithelial cells, endothelial cells, neutrophils, macrophages, and mast cells. The binding of TSLP to its receptor induces a conformational change that activates JAK1 and JAK2 to phosphorylate various transcription factors, including STAT3 and STAT5. In immune cells, this triggers a cascade of intracellular events that result in cell proliferation, anti-apoptosis, dendritic cell migration, and production of Th2 cytokines and chemokines. In peripheral blood mononuclear cells (PBMC), TSLP has a proinflammatory effect by activating myeloid dendritic cells to attract and stimulate T cells, a process mediated by the chemoattractant TARC.
The potencies of the test compounds were measured for inhibition of TARC release.
PBMC aliquots (previously isolated from whole blood and frozen in aliquots at −80° C.) from 3 to 5 donors were thawed at 37° C. and added dropwise to 40 mL pre-warmed, sterile-filtered, complete RPMI media in 50 mL Falcon tubes. Cells were pelleted and resuspended in complete media at 2.24×10^6 cells/mL. Cells were seeded at […] (190,000 cells) per well in a tissue culture treated 96-well flat bottom microplate. Cells were allowed to rest for 1 hour at 37° C. with 5% CO2.
Compounds were received as 10 mM stock solutions in DMSO. 3.7-fold serial dilutions were performed to generate 9 concentrations of test compound in DMSO at 300× the final assay test concentration. […] After the 1 hour rest period, 95 µL of 2× compound was added to each well of PBMC, for a final assay concentration range of 33.33 μM to […]. 95 μL of 0.2% DMSO in complete media was added to the untreated control wells. Cells were pre-treated with compound for 1 hour at 37° C. with 5% CO2 prior to stimulation.
Recombinant human TSLP protein was reconstituted at 10 μg/mL in sterile DPBS with 0.1% BSA and stored in aliquots at −20° C. Immediately prior to use, an aliquot was thawed and prepared at 20× the final assay concentration in complete media. 10 μL of 20×TSLP was added to each well of PBMC, for a final assay concentration of 10 ng/mL. 10 μL of complete media was added to the unstimulated control wells. Cells were stimulated in the presence of compound for 48 hours at 37° C. with 5% CO2.
Following stimulation, the cell culture supernatants were harvested and TARC levels were detected by enzyme-linked immunosorbent assay (ELISA), using Human CCL17/TARC Quantikine ELISA Kit (R&D Systems # DDN00) according to the manufacturer's instructions.
For dose response analysis, the log [test compound (M)] was plotted versus the percent response values for each donor, and IC50 values were determined using a nonlinear regression analysis with GraphPad Prism Software using the 4-parameter sigmoidal dose-response algorithm with variable slope. Data are expressed as mean pIC50 (negative decadic logarithm IC50) values calculated from pIC50 values of individual donors and rounded to one decimal place.

[3] = ATP at Km 25 μM, pIC50 converted with Cheng-Prusoff
[4] = ATP at Km 10 μM, pIC50 converted with Cheng-Prusoff
[5] = IL-2 300 ng/mL, 30 min, pSTAT5 AlphaLisa
[6] = PBMC from 3 to 5 donors, TSLP 10 ng/mL, 48 hours, TARC ELISA

JAK1, sequence (P23458 whole entry): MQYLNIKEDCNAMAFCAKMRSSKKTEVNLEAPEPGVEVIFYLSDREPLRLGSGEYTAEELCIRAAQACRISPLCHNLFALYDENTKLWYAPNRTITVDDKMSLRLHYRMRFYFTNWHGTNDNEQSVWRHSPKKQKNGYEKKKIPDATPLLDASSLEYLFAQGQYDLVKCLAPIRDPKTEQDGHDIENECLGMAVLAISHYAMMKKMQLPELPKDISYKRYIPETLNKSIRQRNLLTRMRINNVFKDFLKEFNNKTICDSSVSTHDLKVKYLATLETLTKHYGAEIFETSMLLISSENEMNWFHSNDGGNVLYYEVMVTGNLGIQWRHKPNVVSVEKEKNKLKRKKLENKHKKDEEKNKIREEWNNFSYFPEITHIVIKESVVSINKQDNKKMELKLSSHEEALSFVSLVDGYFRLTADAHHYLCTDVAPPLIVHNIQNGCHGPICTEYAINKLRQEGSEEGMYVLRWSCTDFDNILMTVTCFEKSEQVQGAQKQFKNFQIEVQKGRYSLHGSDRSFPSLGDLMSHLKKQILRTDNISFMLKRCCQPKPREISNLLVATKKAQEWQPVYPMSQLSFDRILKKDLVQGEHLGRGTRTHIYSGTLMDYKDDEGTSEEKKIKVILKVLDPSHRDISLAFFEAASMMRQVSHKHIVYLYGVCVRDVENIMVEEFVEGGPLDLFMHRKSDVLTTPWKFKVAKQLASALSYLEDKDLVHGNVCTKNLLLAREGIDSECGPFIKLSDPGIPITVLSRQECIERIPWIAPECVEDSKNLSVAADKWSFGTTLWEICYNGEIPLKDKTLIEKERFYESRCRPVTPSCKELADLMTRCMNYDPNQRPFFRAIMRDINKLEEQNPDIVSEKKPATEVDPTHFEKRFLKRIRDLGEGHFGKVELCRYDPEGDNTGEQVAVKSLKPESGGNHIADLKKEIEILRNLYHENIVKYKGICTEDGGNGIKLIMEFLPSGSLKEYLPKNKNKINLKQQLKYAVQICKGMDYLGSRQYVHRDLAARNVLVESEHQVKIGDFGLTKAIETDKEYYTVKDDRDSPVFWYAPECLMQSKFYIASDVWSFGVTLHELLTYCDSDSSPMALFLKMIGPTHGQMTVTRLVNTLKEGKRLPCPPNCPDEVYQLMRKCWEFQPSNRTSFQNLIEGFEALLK

Row | Structure (SMILES) | JAK1 pKi (JAK1; [3]) | Tyk2 pKi (Tyk2; [4]) | IC50 [1, 5] [µM] | IC50 [2, 6] [µM] | JAK1 pKi (JAK1) | Tyk2 pKi (Tyk2) | IC50 [1] [µM] | IC50 ([2]; PBMC, 48 h) [µM]
1 | CCCN1Cc2[nH]c(-c3n[nH]c4cc(-c5ccc(O)cc5CC)ccc34)nc2C[C@H]1C(=O)N1CCN(CCO)CC1 [Compound 1, (S)-(2-(6-(2-ethyl-4-hydroxyphenyl)-1H-indazol-3-yl)-5-propyl-4,5,6,7-tetrahydro-3H-imidazo[4,5-c]pyridin-6-yl)(4-(2-hydroxyethyl)piperazin-1-yl)methanone] | 10.2 | 9.0 | 0.00158 | 0.0794 | – | – | – | –
2 | CCCN1Cc2[nH]c(-c3n[nH]c4cc(-c5cc(F)c(O)cc5CC)ccc34)nc2C[C@H]1C(=O)N1C[C@@H]2C[C@H]1CN2C [Compound C-2, ((S)-2-(6-(2-ethyl-5-fluoro-4-hydroxyphenyl)-1H-indazol-3-yl)-5-propyl-4,5,6,7-tetrahydro-3H-imidazo[4,5-c]pyridin-6-yl)((1S,4S)-5-methyl-2,5-diazabicyclo-[2.2.1]heptan-2-yl)methanone, reference compound] | 10.3 | 9.5 | 0.00251 | 0.251 | – | – | – | –
3 | CCc1cc(O)ccc1-c1ccc2c(-c3nc4c([nH]3)CN(C)[C@H](C(=O)N3CCN(CCO)C[C@H]3C)C4)n[nH]c2c1 [Compound 5, ((S)-2-(6-(2-ethyl-4-hydroxyphenyl)-1H-indazol-3-yl)-5-methyl-4,5,6,7-tetrahydro-3H-imidazo[4,5-c]pyridin-6-yl)((R)-4-(2-hydroxyethyl)-2-methylpiperazin-1-yl)methanone] | – | – | – | – | 10.3 | 9.2 | 0.00158 | 0.0316
4 | CCc1cc(O)ccc1-c1ccc2c(-c3nc4c([nH]3)CN(C(C)C)[C@H](C(=O)N3CC[C@H](N(C)C)C3)C4)n[nH]c2c1 [Compound 6, ((S)-3-(dimethylamino)pyrrolidin-1-yl)((S)-2-(6-(2-ethyl-4-hydroxyphenyl)-1H-indazol-3-yl)-5-isopropyl-4,5,6,7-tetrahydro-3H-imidazo[4,5-c]pyridin-6-yl)methanone] | – | – | – | – | 10.2 | 9.0 | 0.002 | 0.158
5 | CCc1cc(O)ccc1-c1ccc2c(-c3nc4c([nH]3)CN(C(C)C)[C@H](C(=O)N3CCCN(C)CC3)C4)n[nH]c2c1 [Compound 4, (S)-(2-(6-(2-ethyl-4-hydroxyphenyl)-1H-indazol-3-yl)-5-isopropyl-4,5,6,7-tetrahydro-3H-imidazo[4,5-c]pyridin-6-yl)(4-methyl-1,4-diazepan-1-yl)methanone] | – | – | – | – | 10.1 | 9.0 | 0.00251 | 0.158
6 | CCc1cc(O)c(F)cc1-c1ccc2c(-c3nc4c([nH]3)CN(C)[C@H](C(=O)N3CCN(C)C[C@@H]3C)C4)n[nH]c2c1 [Compound C-3, ((S)-2,4-dimethylpiperazin-1-yl)((S)-2-(6-(2-ethyl-5-fluoro-4-hydroxyphenyl)-1H-indazol-3-yl)-5-methyl-4,5,6,7-tetrahydro-3H-imidazo[4,5-c]pyridin-6-yl)methanone, reference compound] | – | 9.3 | 0.002 | 0.1 | – | – | – | –
7 | CCCN1Cc2[nH]c(-c3n[nH]c4cc(-c5ccc(O)cc5CC)ccc34)nc2C[C@H]1C(=O)N1C[C@@H]2C[C@H]1CN2C [Compound 2, ((S)-2-(6-(2-ethyl-4-hydroxyphenyl)-1H-indazol-3-yl)-5-propyl-4,5,6,7-tetrahydro-3H-imidazo[4,5-c]pyridin-6-yl)((1S,4S)-5-methyl-2,5-diazabicyclo[2.2.1]heptan-2-yl)methanone] | 10.3 | 8.9 | 0.00398 | 0.158 | – | – | – | –
8 | CCc1cc(O)c(F)cc1-c1ccc2c(-c3nc4c([nH]3)CN(C(C)C)[C@H](C(=O)N3CCCN(C)CC3)C4)n[nH]c2c1 [Compound C-4, (S)-(2-(6-(2-ethyl-5-fluoro-4-hydroxyphenyl)-1H-indazol-3-yl)-5-isopropyl-4,5,6,7-tetrahydro-3H-imidazo[4,5-c]pyridin-6-yl)(4-methyl-1,4-diazepan-1-yl)methanone, reference compound] | 10.0 | 9.3 | 0.002 | 0.1 | – | – | – | –
9 | CCCN1Cc2[nH]c(-c3n[nH]c4cc(-c5cc(F)c(O)cc5CC)ccc34)nc2C[C@H]1C(=O)N1CCN(CCO)CC1 [Compound C-1, (S)-(2-(6-(2-ethyl-5-fluoro-4-hydroxyphenyl)-1H-indazol-3-yl)-5-propyl-4,5,6,7-tetrahydro-3H-imidazo[4,5-c]pyridin-6-yl)(4-(2-hydroxyethyl)piperazin-1-yl)methanone, reference compound] | 10.2 | 9.1 | 0.002 | 0.1 | – | – | – | –
